Measured values: EP1075467B1, “PYRAZOLE DERIVATIVES AS P-38 MAP KINASE INHIBITORS” (F. Hoffmann-La Roche AG, priority 1998, dated 1999)
Structures can show the parent of a compound that is named as a salt. Where two headings read alike, the source gives them in different places.

Key:
TNF-α Production In Rats = assay: Inhibition of LPS-induced TNF-α production in rats, in vivo assay; parameters: species or system Female Sprague-Dawley rats; details: dosed orally at 30 mg, LPS 50 µg/kg intraperitoneally after 30 min, serum TNF-α 1.5 h later by ELISA
Description: Female Sprague-Dawley rats weighing 110-140 grams (Charles River, Hollister, CA) were acclimated for one week. Groups containing 8 […] each were dosed orally either with the test compounds dissolved in an aqueous vehicle containing 0.9% sodium chloride, 0.5% sodium carboxymethyl-cellulose, 0.4% polysorbate 80, 0.9% benzyl alcohol (CMC vehicle) or only vehicle (control group). After 30 min., the […] were injected intraperitoneally with 50 µg/kg of LPS (Sigma, St. Louis, MO).

[1] = system: TNF-α Production In THP1 Cells; assay: Inhibition of LPS-induced TNF-α production in THP1 cells, in vitro assay; assay type: cell-based, human; details: THP-1 cells, LPS 0.5 µg/ml, 2 h, TNF-α in supernatant by ELISA, read-out: IC50 (concentration corresponding to half-maximal reduction in 450 nm absorbance), TNF-α release
Description: The ability of the compounds of this invention to inhibit the TNF-α release was determined using a minor modification of the methods described in Blifeld, C. et al. Transplantation, Vol. 51(2), 498-503, (1991). THP-1 cells were suspended in culture medium [RPMI (Gibco-BRL, Gailthersburg, MD) containing 15% fetal bovine serum, 0.02 mM 2-mercaptoethanol], at a concentration of 2.5 x 10^6 cells/ml and then plated in 96 well plate (0.2 ml aliquots in each well). Test compounds were dissolved in DMSO and then diluted with the culture medium such that the final DMSO concentration was 5%. 20 μl aliquots of test solution or only medium with DMSO (control) were added to each well. The cells were incubated for 30 min., at 37 °C. LPS (Sigma, St. Louis, MO) was added to the wells at a final concentration of 0.5 μg/ml, and cells were incubated for an additional 2 h. At the end of the incubation period, culture supernatants were collected and the amount of TNF-α present was determined using an ELISA assay as described below. The amount of human TNF-α present was determined by a specific trapping ELISA assay using two anti-TNF-α antibodies (2TNF-H22 and 2TNF-[…]) described in Reimund, J. M., et al. GUT. Vol. 39(5), 684-689 (1996). Polystyrene 96-well plates were coated with 50 μl per well of antibody 2TNF-H22 in PBS (10 μg/ml) and incubated in a humidified chamber at 4 °C overnight. The plates were washed with PBS and then blocked with 5% nonfat-dry milk in PBS for 1 hour at room temperature and washed with 0.1% BSA (bovine serum albumin) in PBS. TNF standards were prepared from a stock solution of human recombinant TNF-α (R&D Systems, Minneapolis, MN). The concentration of the standards in the assay began at 10 ng/ml followed by 6 half log serial dilution's. […] Optical density of the sample and the reference were read at 450 nm and 650 nm, respectively. TNF-α levels were determined from a graph relating the optical density at 450 nm to the concentration used. The IC50 value was defined as the concentration of the test compound corresponding to half-maximal reduction in 450 nm absorbance. […]

IC50 ([1]; Homo sapiens) [nM] | Compound | % Inhibition (TNF-α content in the test group relative to the vehicle treated group) (TNF-α Production In Rats) [%] | also measured
 | Nc1c(C(=O)c2cccc(C#CCN3CCOCC3)c2)cnn1-c1ccc(F)cc1 [compound 3, 5-Amino-1-(4-fluorophenyl)-4-[3-{3-(morpholin-4-yl)prop-1-ynyl}benzoyl]pyrazole] | 96 | 
1040 | Nc1c(C(=O)c2cccc(CCCN3CCOCC3)c2)cnn1-c1ccc(F)cc1 [compound 6, 5-Amino-1-(4-fluorophenyl)-4-[3-(3-morpholin-4-ylpropyl)benzoyl]pyrazole hydrochloride] |  | 
 | CNC(=O)COc1cccc(C(=O)c2cnn(-c3ccc(F)cc3)c2N)c1 [compound 34, 5-Amino-1-(4-fluorophenyl)-4-[3-(methylaminocarbonylmethyloxy)-benzoyl]pyrazole] | 75 | 
 | CN1CCN(C(=O)COc2cccc(C(=O)c3cnn(-c4ccc(F)cc4)c3N)c2)CC1 [compound 38] |  | IC50 [1]: 690 nM
510 | Nc1c(C(=O)c2cccc(CCS(N)(=O)=O)c2)cnn1-c1ccc(F)cc1 [compound 50, 5-Amino-4-[3-(2-aminosulfonylethyl)benzoyl]-1-(4-fluorophenyl)pyrazole] |  | 
